Values quoted from earlier work as cited in paper PMC12385607 (ACS medicinal chemistry letters, 2025).

Key:
[1] = 30 min post-oral administration
[2] = orally available 2-PMPA prodrugs

SMILES	Plasma concentration of 2-PMPA after oral administration of 2-PMPA itself [1]	Clearance from plasma after intravenous administration (in words)	Brain distribution of 2-PMPA (in words) [2]
O=C(O)CCC(CP(=O)(O)O)C(=O)O (stereo not drawn) [2-PMPA, 2-(phosphonomethyl)pentanedioic acid]	~ 250 nM	quickly cleared from the plasma	
Cc1oc(=O)oc1COC(=O)CCC(CP(=O)(OCc1oc(=O)oc1C)OCc1oc(=O)oc1C)C(=O)OCc1oc(=O)oc1C (stereo not drawn) [tetra-ODOL-2-PMPA]			limited brain distribution
